Measured values as given in patent EP0908457B1, “3-(1,2-benzisothiazol- and isoxazol-5-Y1)-2,4(1H,3H)-pyrimidinedione or thione and 3-(1,2-benzisothiazol- and isoxazol-5-y1)-4(3H)-pyrimidinone or thione herbicidal agents” (BASF AKTIENGESELLSCHAFT, priority 1997, dated 1999).

Assays:
[1] = test system: Echinochloa oryzoides (Ard.) Fritsch.; assay: Preemergence weed control under flooded paddy conditions, ECHORC (Watergrass (Calif.)); format: in vivo; conditions: flooded paddy, rated three to four weeks after treatment; as to herbicidal effect rating, ECHORC: meaning of each grade not given here
[2] = test system: Sagittaria pygmaea, L.; assay: Preemergence weed control under flooded paddy conditions, SAGPY (Arrowhead (Pygmaea)); format: in vivo; conditions: flooded paddy, rated three to four weeks after treatment; as to herbicidal effect rating, SAGPY: meaning of each grade not given here
[3] = test system: Oryza sativa, (L.) Tebonnet; assay: Rice tolerance to post-transplant applications under flooded paddy conditions (Example 187), ORYSAT (Rice, Tebonnet); conditions: rated three to four weeks after treatment; as to herbicidal effect rating ORYSAT: meaning of each grade not given here
[4] = test system: Cyperus iria; assay: Preemergence weed control under flooded paddy conditions, CYPIR (Rice Flatsedge); format: in vivo; conditions: flooded paddy, rated three to four weeks after treatment; as to herbicidal effect rating, CYPIR: meaning of each grade not given here
[5] = test system: Cyperus serotinus, Rottb.; assay: Preemergence weed control under flooded paddy conditions, CYPSE (Flatsedge); format: in vivo; conditions: rated three to four weeks after treatment; also: meaning of each grade not given here
[6] = test system: Monochoria vaginalis, Presl.; assay: Preemergence weed control under flooded paddy conditions, MOOVA (Monochoria); format: in vivo; conditions: flooded paddy, rated three to four weeks after treatment; for herbicidal effect rating, MOOVA: preemergence weeds; for MOOVA herbicidal effect rating: preemergence; as to herbicidal effect rating, MOOVA: meaning of each grade not given here
[7] = Rate 0.0320 kg/ha, preemergence weeds
[8] = Rate 0.0620 kg/ha, preemergence weeds
[9] = Rate 0.1250 kg/ha, preemergence weeds
[10] = Rate 0.2500 kg/ha, preemergence weeds
[11] = Rate 0.0620 kg/ha, preemergence
[12] = Rate 0.1250 kg/ha, preemergence
[13] = Rate 0.2500 kg/ha, preemergence
[14] = Rate 0.0320 kg/ha, preemergence

SMILES | herbicidal effect rating, ECHORC [1, 7] | herbicidal effect rating, ECHORC [1, 8] | herbicidal effect rating, ECHORC [1, 9] | herbicidal effect rating, ECHORC [1, 10] | herbicidal effect rating, SAGPY [2, 7] | herbicidal effect rating, SAGPY [2, 8] | herbicidal effect rating, SAGPY [2, 9] | herbicidal effect rating, SAGPY [2, 10] | herbicidal effect rating ORYSAT ([3]; Rate 0.0320 kg/ha) | herbicidal effect rating ORYSAT ([3]; Rate 0.0620 kg/ha) | herbicidal effect rating ORYSAT ([3]; Rate 0.1250 kg/ha) | herbicidal effect rating ORYSAT ([3]; Rate 0.2500 kg/ha) | herbicidal effect rating, CYPIR [4, 7] | herbicidal effect rating, CYPIR [4, 8] | herbicidal effect rating, CYPIR [4, 9] | herbicidal effect rating, CYPIR [4, 10] | herbicidal effect rating, CYPSE [5, 7] | herbicidal effect rating, CYPSE [5, 8] | herbicidal effect rating, CYPSE [5, 9] | herbicidal effect rating, CYPSE [5, 10] | also measured
CC(Br)c1nsc2ccc(-n3c(=O)cc(C(F)(F)F)n(C)c3=O)cc12 (stereo not drawn) [Example 339, 2,4(1H,3H)-Pyrimidinedione, 3-[3-(1-bromoethyl)-1,2-benzisothiazol-5-yl]-1-methyl-6-(trifluoromethyl)-] | 0.0 | 0.0 | 4.0 | 6.0 | 5.0 | 5.0 | 5.0 | 9.0 | 5.0 | 7.0 | 9.0 | 9.0 | 4.0 | 4.0 | 7.0 | 7.0 | 0.0 | 0.0 | 6.0 | 9.0 | 
Cn1c(C(F)(F)F)cc(=O)n(-c2ccc3snc(C(C#N)=Cc4cnc[nH]4)c3c2)c1=O [Example 595, 1,2-Benzisothiazole-3-acetonitrile, 5-[3,6-dihydro-3-methyl-2,6-dioxo-4-(trifluoromethyl)-1(2H)-pyrimidinyl]-alpha-(imidazol-5-ylmethylene)-] |  |  |  |  |  |  |  |  |  | 0.0 | 0.0 | 2.0 |  |  |  |  |  |  |  |  | herbicidal effect rating, ECHORC [1, 11]: 0.0; herbicidal effect rating, ECHORC [1, 12]: 3.0; herbicidal effect rating, ECHORC [1, 13]: 4.0; herbicidal effect rating, SAGPY [2, 11]: 0.0; herbicidal effect rating, SAGPY [2, 12]: 0.0; herbicidal effect rating, SAGPY [2, 13]: 0.0; herbicidal effect rating, CYPIR [4, 11]: 0.0; herbicidal effect rating, CYPIR [4, 12]: 2.0; herbicidal effect rating, CYPIR [4, 13]: 4.0; herbicidal effect rating, CYPSE [5, 12]: 0.0
CCC(=O)COC(=O)COc1ccc(C)cc1-c1nsc2ccc(-n3c(=O)cc(C(F)(F)F)n(C)c3=O)cc12 [Example 577, Acetic acid, {{2-{5-[3,6-dihydro-3-methyl-2,6-dioxo-4-(trifluoromethyl)-1(2H)-pyrimidinyl]-1,2-benzisothiazol-3-yl}-p-tolyl}oxy}-, 2-oxobutyl ester] |  |  |  |  |  |  |  |  | 4.0 | 5.0 | 5.0 | 9.0 |  |  |  |  |  |  |  |  | herbicidal effect rating, ECHORC [1, 14]: 6.0; herbicidal effect rating, ECHORC [1, 11]: 7.0; herbicidal effect rating, ECHORC [1, 12]: 7.0; herbicidal effect rating, ECHORC [1, 13]: 9.0; herbicidal effect rating, SAGPY [2, 14]: 4.0; herbicidal effect rating, SAGPY [2, 11]: 6.0; herbicidal effect rating, SAGPY [2, 12]: 6.0; herbicidal effect rating, SAGPY [2, 13]: 6.0; herbicidal effect rating, CYPIR [4, 14]: 2.0; herbicidal effect rating, CYPIR [4, 11]: 4.0; herbicidal effect rating, CYPIR [4, 12]: 7.0; herbicidal effect rating, CYPIR [4, 13]: 9.0; herbicidal effect rating, CYPSE [5, 14]: 0.0; herbicidal effect rating, CYPSE [5, 11]: 3.0; herbicidal effect rating, CYPSE [5, 12]: 3.0; herbicidal effect rating, CYPSE [5, 13]: 3.0
C#CCOC(=O)COc1ccc(OC)cc1-c1nsc2ccc(-n3c(=O)cc(C(F)(F)F)n(C)c3=O)cc12 [Example 349, Acetic acid, {2-{5-[3,6-dihydro-3-methyl-2,6-dioxo-4-(trifluoromethyl)-1(2H)-pyrimidinyl]-1,2-benzisothiazol-3-yl}-4-methoxyphenoxy}-, 2-propynyl ester] |  |  |  | 7.0 |  |  |  | 6.0 | 4.0 | 5.0 | 7.0 | 7.0 |  |  |  | 7.0 |  |  |  | 4.0 | herbicidal effect rating, ECHORC [1, 14]: 5.0; herbicidal effect rating, ECHORC [1, 11]: 5.0; herbicidal effect rating, ECHORC [1, 12]: 6.0; herbicidal effect rating, SAGPY [2, 14]: 4.0; herbicidal effect rating, SAGPY [2, 11]: 5.0; herbicidal effect rating, SAGPY [2, 12]: 5.0; herbicidal effect rating, CYPIR [4, 14]: 0.0; herbicidal effect rating, CYPIR [4, 11]: 4.0; herbicidal effect rating, CYPIR [4, 12]: 7.0; herbicidal effect rating, CYPSE [5, 14]: 4.0; herbicidal effect rating, CYPSE [5, 11]: 4.0; herbicidal effect rating, CYPSE [5, 12]: 4.0
COC(=O)COc1ccc(OC)cc1-c1nsc2ccc(-n3c(=O)cc(C(F)(F)F)n(C)c3=O)cc12 [Example 347, Acetic acid, {2-{5-[3,6-dihydro-3-methyl-2,6-dioxo-4-(trifluoromethyl)-1(2H)-pyrimidinyl]-1,2-benzisothiazol-3-yl}-4-methoxyphenoxy}-, methyl ester] | 7.0 | 9.0 | 9.0 | 9.0 | 2.0 | 3.0 | 4.0 | 5.0 | 3.0 | 6.0 | 7.0 | 9.0 | 7.0 | 9.0 | 9.0 | 9.0 | 0.0 | 0.0 | 4.0 | 7.0 | 
CC(Oc1ccccc1-c1nsc2ccc(-n3c(=O)cc(C(F)(F)F)n(C)c3=O)cc12)C(=O)NS(C)(=O)=O (stereo not drawn) [Example 335, Propionamide, 2-{o-{5-[3,6-dihydro-3-methyl-2,6-dioxo-4-(trifluoromethyl)-1(2H)-pyrimidinyl]-1,2-benzisothiazol-3-yl}phenoxy}-N-(methylsulfonyl)-] | 6.0 | 7.0 | 7.0 | 9.0 | 0.0 | 0.0 | 4.0 | 4.0 | 3.0 | 4.0 | 5.0 | 7.0 | 0.0 | 0.0 | 2.0 | 2.0 | 0.0 | 0.0 | 6.0 | 6.0 | 
Cn1c(C(F)(F)F)cc(=O)n(-c2ccc3snc(C(=O)Oc4ccc(F)cc4)c3c2)c1=O [Example 320, 1,2-Benzisothiazole-3-carboxylic acid, 5-[3,6-dihydro-3-methyl-2,6-dioxo-4-(trifluoromethyl)-1(2H)-pyrimidinyl]-, p-fluorophenyl ester] | 0.0 | 0.0 | 0.0 | 2.5 | 1.0 | 2.5 | 2.5 | 5.0 | 1.5 | 2.0 | 2.0 | 2.5 | 0.0 | 2.0 | 5.5 | 8.0 |  |  |  |  | herbicidal effect rating, MOOVA ([6]; Rate 0.0320 kg/ha): 0.0; herbicidal effect rating, MOOVA ([6]; Rate 0.0620 kg/ha): 0.0; herbicidal effect rating, MOOVA ([6]; Rate 0.1250 kg/ha): 3.0; herbicidal effect rating, MOOVA ([6]; Rate 0.2500 kg/ha): 9.0
Cn1c(C(F)(F)F)cc(=O)n(-c2ccc3snc(/C=C/C=O)c3c2)c1=O [Example 291, 1,2-Benzisothiazole-3-acrylaldehyde, 5-[3,6-dihydro-3-methyl-2,6-dioxo-4-(trifluoromethyl)-1(2H)-pyrimidinyl]-, (E)-] |  |  |  |  |  |  |  |  |  |  |  |  |  |  |  |  |  |  |  |  | MOOVA herbicidal effect rating ([6]; Rate 0.0320 kg/ha): 0.0; MOOVA herbicidal effect rating ([6]; Rate 0.0620 kg/ha): 9.0; MOOVA herbicidal effect rating ([6]; Rate 0.1250 kg/ha): 9.0; MOOVA herbicidal effect rating ([6]; Rate 0.2500 kg/ha): 9.0; ECHORC herbicidal effect rating [1, 14]: 0.0; ECHORC herbicidal effect rating [1, 11]: 0.0; ECHORC herbicidal effect rating [1, 12]: 0.0; ECHORC herbicidal effect rating [1, 13]: 0.0; SAGPY herbicidal effect rating [2, 14]: 0.0; SAGPY herbicidal effect rating [2, 11]: 0.0; SAGPY herbicidal effect rating [2, 12]: 0.0; SAGPY herbicidal effect rating [2, 13]: 0.0; ORYSAT herbicidal effect rating ([3]; Rate 0.0320 kg/ha): 0.0; ORYSAT herbicidal effect rating ([3]; Rate 0.0620 kg/ha): 0.0; ORYSAT herbicidal effect rating ([3]; Rate 0.1250 kg/ha): 0.0; ORYSAT herbicidal effect rating ([3]; Rate 0.2500 kg/ha): 0.0; CYPIR herbicidal effect rating [4, 14]: 0.0; CYPIR herbicidal effect rating [4, 11]: 0.0; CYPIR herbicidal effect rating [4, 12]: 9.0; CYPIR herbicidal effect rating [4, 13]: 9.0
